Measured values reported in PMC4967369 (Xenobiotica; the fate of foreign compounds in biological …, 2015).
Where two headings read alike, the source gives them in different places. One block for each compound: values may come before it.

How the values were obtained:
[1] = tested on: mongoose liver microsomes; experiment: Estradiol glucuronidation assay, mongoose liver microsomes; format: in vitro ADME; settings: mongoose livers, 100 µM substrate
cat liver microsomes [2] = experiment: Estradiol glucuronidation assay, cat liver microsomes; format: in vitro ADME; settings: cat livers, 100 µM substrate
ferret liver microsomes = experiment: Estradiol glucuronidation assay, ferret liver microsomes; format: in vitro ADME; settings: ferret livers, 100 µM substrate
[3] = dog, in vivo
[4] = in vivo
[5] = for Urinary concentration, Unconjugated: without enzyme treatment, normalized to creatinine; for % Glucuronides: percentage of free and conjugated isoflavones that are glucuronide
[6] = for Urinary concentration, Unconjugated: without enzyme treatment, normalized to creatinine
cat liver microsomes [7] = experiment: Isoflavone glucuronidation assay, cat liver microsomes; format: in vitro ADME; settings: for Vmax, 7-OH-glucuronidation: pooled cat liver microsomes (n=5); for Rank of cat liver glucuronidation rate among species: pooled liver microsomes, 35 µM substrate, 13 species compared
[8] = as above; format: in vitro ADME; settings: domestic short-hair, cat, pH 7.5
[9] = Isoflavone glucuronidation assay, human liver microsomes; format: in vitro ADME; settings: human, pH 7.5
human liver microsomes = experiment: as above; format: in vitro ADME; settings: pooled human liver microsomes (n=48)
dog liver microsomes = experiment: Isoflavone glucuronidation assay, dog liver microsomes; format: in vitro ADME; settings: pooled dog liver microsomes (n=16)
[10] = as above; format: in vitro ADME; settings: mixed-breed, dog, pH 7.5
[11] = tested on: liver microsomes from 13 different species; experiment: Isoflavone glucuronidation by liver microsomes from 13 different species; format: in vitro ADME, 13 species
[12] = pooled liver microsomes, 35 µM substrate

Rank of estradiol glucuronidation among 13 species [1]: fifth | Rank of estradiol glucuronidation among 13 species (cat liver microsomes [2]): sixth lowest | Rank of estradiol glucuronidation among 13 species (ferret liver microsomes): third lowest
Structure (SMILES): C[C@]12CC[C@@H]3c4ccc(O)cc4CC[C@H]3[C@@H]1CC[C@@H]2O [estradiol, β-estradiol]

Detection of metabolite in urine [3]: not detected | Detection of metabolite in urine [4]: not detected
Structure (SMILES): CC(C(=O)c1c(O)cc(O)cc1O)c1ccc(O)cc1 (stereo not drawn) [6-hydroxy-O-desmethylangolensin]

Detection of metabolite in urine [3]: not detected | Detection of metabolite in urine [4]: not detected
Structure (SMILES): CC(C(=O)c1ccc(O)cc1O)c1ccc(O)cc1 (stereo not drawn) [O-desmethylangolensin]

Structure (SMILES): Oc1ccc(C2=Cc3ccc(O)cc3OC2)cc1 [dehydroequol]
Detection of metabolite in urine ([5]; cat urine, before or after treatment with deconjugation enzymes): not detected | Detection of metabolite in urine ([6]; dog urine, before or after treatment with deconjugation enzymes): not detected

Urinary concentration, Unconjugated ([6]; pooled dog urine (n=10), mean): 9 pmoles / mg creatinine
Structure (SMILES): COc1cc2c(=O)c(-c3ccc(O)cc3)coc2cc1O [Glycitein, glycitein]

Structure (SMILES): O=c1c(-c2ccc(O)cc2)coc2cc(O)ccc12 [Daidzein, daidzein]
Vmax, 7-OH-glucuronidation (cat liver microsomes [7]): 1.61 ± 0.06 nmoles/min/mg protein | Rank of cat liver glucuronidation rate among species (cat liver microsomes [7]): within the lowest three out of 13 species | Km ([8]; pooled cat liver microsomes): 41.9 ± 6.6 µM | Km ([9]; pooled human liver microsomes): 26.6 ± 5.1 µM | Vmax, 7-OH-glucuronidation (human liver microsomes): 1.30 ± 0.05 nmoles/min/mg protein | Vmax, 7-OH-glucuronidation (dog liver microsomes): 8.10 ± 0.1 nmoles/min/mg protein | Km ([10]; pooled dog liver microsomes): 55.4 ± 3.8 µM | 4'-OH-glucuronidation, detection ([11]; 35 µM, pH 7.5): could not be measured in five of the 13 species

Urinary concentration, Unconjugated ([5]; pooled cat urine (n=18), mean): 29 pmoles / mg creatinine | Km [8]: 10.3 ± 2.5 µM | Km [9]: 11.7 ± 2.4 µM | Km [10]: 15.3 ± 2.4 µM | Urinary concentration, Unconjugated ([6]; pooled dog urine (n=10), mean): 31 pmoles / mg creatinine
Structure (SMILES): O=c1c(-c2ccc(O)cc2)coc2cc(O)cc(O)c12 [Genistein, genistein]
Vmax, 7-OH-glucuronidation (cat liver microsomes [7]): 2.15 ± 0.1 nmoles/min/mg protein | Rank of cat liver glucuronidation rate among species (cat liver microsomes [7]): within the lowest three out of 13 species | Vmax, 7-OH-glucuronidation (human liver microsomes): 1.60 ± 0.07 nmoles/min/mg protein | Vmax, 7-OH-glucuronidation (dog liver microsomes): 5.13 ± 0.2 nmoles/min/mg protein | Glucuronidation at the 5-OH position ([11]; search for additional HPLC peaks with the same mass spectrum): no evidence for glucuronidation at that site

Structure (SMILES): O=C1c2c(O)cc(O)cc2OCC1c1ccc(O)cc1 (stereo not drawn) [Dihydrogenistein, dihydrogenistein]
Urinary concentration, Glucuronides ([5]; pooled cat urine (n=18), after bovine liver β-glucuronidase treatment, mean): 0 pmoles / mg creatinine | % Glucuronides ([5]; pooled cat urine (n=18)): 0% | % Glucuronides ([5]; pooled cat urine (n=18), listed as dihydrogenistein): undetectable | Urinary concentration, Total ([5]; pooled cat urine (n=18), sum of free and conjugated concentrations, mean): 2998 pmoles / mg creatinine | Urinary concentration, Unconjugated ([5]; pooled cat urine (n=18), mean): 0 pmoles / mg creatinine | Urinary concentration, Glucuronides ([6]; pooled dog urine (n=10), after bovine liver β-glucuronidase treatment, mean): 631 pmoles / mg creatinine | % Glucuronides ([6]; pooled dog urine (n=10), percentage of free and conjugated isoflavones that are glucuronide): 33% | Urinary concentration, Total ([6]; pooled dog urine (n=10), sum of free and conjugated concentrations, mean): 1919 pmoles / mg creatinine | Urinary concentration, Unconjugated ([6]; pooled dog urine (n=10), mean): 0 pmoles / mg creatinine

Km ([8]; pooled cat liver microsomes): 132 ± 26 µM | Km ([9]; pooled human liver microsomes): 31.8 ± 5.1 µM | Km ([10]; pooled dog liver microsomes): 32.6 ± 6.9 µM | Equol to daidzein ratio ([6]; individual dog urine samples with detectable equol (three of ten)): 0.004–0.017 | Urinary concentration, Unconjugated ([6]; pooled dog urine (n=10), mean): 0 pmoles / mg creatinine
Structure (SMILES): Oc1ccc([C@H]2COc3cc(O)ccc3C2)cc1 [Equol, equol]
Vmax, 7-OH-glucuronidation (cat liver microsomes [7]): 20.4 ± 1.4 nmoles/min/mg protein | Rank of cat liver glucuronidation rate among species (cat liver microsomes [7]): within the lowest three out of 13 species | Vmax, 7-OH-glucuronidation (human liver microsomes): 17.4 ± 0.7 nmoles/min/mg protein | Vmax, 7-OH-glucuronidation (dog liver microsomes): 14.3 ± 0.6 nmoles/min/mg protein | 4'-OH-glucuronidation, detection [11, 12]: not detected in any of the species evaluated | 7-OH-glucuronidation, detection [11, 12]: detected in all species livers’ evaluated except for glucuronidation of equol by mongoose liver
